Reference: article doi:10.1101/2023.10.24.563883v2 (biorxiv, 2024)

Target: T1, LPHN2 (Homo sapiens, UniProt O95490)
T1 sequence (O95490 26-1459): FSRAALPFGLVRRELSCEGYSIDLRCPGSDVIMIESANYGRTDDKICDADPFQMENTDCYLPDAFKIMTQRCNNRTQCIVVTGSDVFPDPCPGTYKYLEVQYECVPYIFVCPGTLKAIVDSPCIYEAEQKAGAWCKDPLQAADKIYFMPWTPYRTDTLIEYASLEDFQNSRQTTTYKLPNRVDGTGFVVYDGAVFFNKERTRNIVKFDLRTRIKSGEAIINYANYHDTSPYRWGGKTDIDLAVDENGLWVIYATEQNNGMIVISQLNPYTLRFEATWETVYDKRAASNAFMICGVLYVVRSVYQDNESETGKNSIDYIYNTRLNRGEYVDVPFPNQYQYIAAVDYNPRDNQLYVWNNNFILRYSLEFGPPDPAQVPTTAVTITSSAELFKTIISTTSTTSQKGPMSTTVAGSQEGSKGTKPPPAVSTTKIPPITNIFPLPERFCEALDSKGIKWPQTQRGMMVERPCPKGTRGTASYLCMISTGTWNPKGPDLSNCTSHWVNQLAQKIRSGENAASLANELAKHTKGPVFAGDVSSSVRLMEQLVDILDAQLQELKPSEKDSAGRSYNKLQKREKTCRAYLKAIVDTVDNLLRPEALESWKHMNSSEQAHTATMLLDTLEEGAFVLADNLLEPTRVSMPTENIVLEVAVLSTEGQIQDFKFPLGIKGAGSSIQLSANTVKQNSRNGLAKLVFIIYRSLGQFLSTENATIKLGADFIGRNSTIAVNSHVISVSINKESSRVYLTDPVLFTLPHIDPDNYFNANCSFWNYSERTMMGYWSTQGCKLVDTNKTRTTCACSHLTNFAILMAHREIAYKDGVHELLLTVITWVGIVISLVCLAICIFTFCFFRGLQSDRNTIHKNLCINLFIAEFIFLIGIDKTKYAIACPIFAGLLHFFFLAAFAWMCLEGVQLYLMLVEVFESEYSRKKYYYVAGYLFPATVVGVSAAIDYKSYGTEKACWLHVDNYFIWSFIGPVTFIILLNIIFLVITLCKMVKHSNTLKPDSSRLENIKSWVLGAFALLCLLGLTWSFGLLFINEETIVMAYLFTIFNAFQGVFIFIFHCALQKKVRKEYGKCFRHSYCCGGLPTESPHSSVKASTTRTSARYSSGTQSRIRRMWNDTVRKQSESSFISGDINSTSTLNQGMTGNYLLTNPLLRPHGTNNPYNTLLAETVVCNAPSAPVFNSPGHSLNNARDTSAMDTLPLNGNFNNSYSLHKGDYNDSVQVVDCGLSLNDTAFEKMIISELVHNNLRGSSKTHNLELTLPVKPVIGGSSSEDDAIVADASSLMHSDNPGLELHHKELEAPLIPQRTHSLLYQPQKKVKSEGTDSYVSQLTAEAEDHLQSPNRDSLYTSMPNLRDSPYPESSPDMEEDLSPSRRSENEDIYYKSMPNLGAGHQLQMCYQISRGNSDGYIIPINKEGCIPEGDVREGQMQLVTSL
Test: BRET G protein
Format: cell-based

## COc1ccc(OC)c(NC2=NC(=O)CC(C(=O)Nc3cc(C(F)(F)F)ccc3Cl)S2)c1 (stereo not shown) [D11]
  EC50: 0.0399 ± 0.0162 µM
